Reference: patent EP4711365A1 (Shanghai Hansoh Biomedical Co., Ltd., priority 2023, dated 2024)

Key:
[1] = biological target: T1, human IL-17RA and IL-17A proteins (Homo sapiens, UniProt Q16552); assay: Competitive ELISA: blocking of binding between human IL-17RA and IL-17A; settings: coated IL-17A, IL-17RA 5 nM
T1 sequence (Q16552 24-155): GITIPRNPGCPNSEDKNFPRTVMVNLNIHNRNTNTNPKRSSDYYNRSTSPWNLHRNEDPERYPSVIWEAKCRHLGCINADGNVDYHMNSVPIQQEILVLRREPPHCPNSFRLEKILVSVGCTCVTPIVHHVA
Experimental: Test example 1 Assay for competitive binding effect between compounds of the present invention and human IL-17 receptor for ligand
1. Experimental objective: to quantitatively determine the blocking effect of the compound on the binding between human IL-17RA and IL-17A proteins using competitive ELISA under in vitro conditions. 2. Experimental instruments and reagents: 2.1 Instruments:
2.2 Reagents: 3. Experimental method: IL-17A at 0.0625 µg/mL was coated in a 96-well plate at 4°C overnight at 100 µL per well. The plate was washed with PBST (300 µL/well x 4), and then blocked at 24°C for 2 h by adding 300 µL of ELISA Blocker blocking buffer to each well. The plate was further washed under the same conditions. 80 µL of PBS solution containing 1% BSA and 10 µL of 10× test compound solution were added to each well and mixed uniformly, and then the mixture was incubated at room temperature for 1 hour. After that, 10 µL of IL-17RA solution was added to a final concentration of 5 nM and mixed uniformly, and then the mixture was incubated at 24°C for 1 h. The corresponding concentration and volume of DMSO solution without compounds was added to positive control wells, and 1% BSA solution without IL-17RA was added to negative control wells.
After the plate was washed four times, 100 µL of the anti-Fc tag HRP-conjugated antibody was added, and the mixture was incubated at 37°C for 1 h. After the plate was washed four times, 100 µL of TMB substrate was added to each well, and the mixture was incubated at 37°C in the dark. After colour development was completed, the reaction was terminated by adding 100 µL of stop solution to each well, and the absorbance was measured at wavelengths of 450 nm and 570 nm using a microplate reader.
• 1) Inhibition rate (%): The original data (OD450-OD570) was calculated according to the following formula to obtain the inhibition rate. Inhibition rate% = [(average value of positive control wells - value of sample wells)/(average value of positive control wells - average value of negative control wells)] × 100, where the positive control wells are wells without compounds, and the negative control wells are wells without IL-17RA protein solution. • 2) Curve fitting: Log(inhibitor) vs. response -- Variable slope (four parameters) in GraphPad Prism 8 was used for fitting equation analysis of the compound concentration and the corresponding inhibition rate, and the curve was fitted to obtain the IC50 value of the compound. The fitting calculation equation was Y = Bottom + (Top - Bottom) / (1 + 10^((LogIC50 - X) * HillSlope)).

[2] = test system: Groα secretion by HT-29 cells; assay: Inhibition of Groα secretion by HT-29 cells stimulated with IL-17A (ELISA); type: cell-based, Human; settings: Homo sapiens, IL-17A 30 ng/ml, 48 hours, Groα in supernatant
Procedure, shortened: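 HT-29 cells (10,000/well) were cultured overnight, then given compound pre-mixed 30 min with IL-17A (final 30 ng/ml) and incubated 48 hours at 37°C. Groα in supernatant was measured by ELISA at 450 nm; inhibition relative to IL-17A-stimulated control, IC50 from four-parameter fit.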

[3] = Pharmacokinetic assay in Wistar rats, oral; settings: rat, plasma, 30 mg/kg
Experimental: Experimental objective: to study the pharmacokinetic behaviours of the compounds of the present invention in the body (plasma) of Wistar rats as test animals after oral administration at a dose of 30 mg/kg. • 2. Experimental scheme • 2.1 Test drugs: the examples of the present invention, prepared in house. • 2.2 Test animals: Wistar rats (female, 3 rats per group), from Beijing Vital River Laboratory Animal Technology Co., Ltd., with the animal production license no.
Solutol HS15 was melted in a water bath at 50-60°C, and then 50 mL of the melted Solutol HS15 was added to 450 mL of ultrapure water. The mixture was stirred and sonicated to obtain 500 mL of 10% Solutol HS15 solution. The compound was weighed, and according to the total administration volume, 30% PEG solution was first added. The mixture was shaken uniformly and sonicated until a clear solution was obtained. Subsequently, 70% (10% Solutol) in water was added, resulting in a colourless and clear solution with a concentration of 3.0 mg/mL.
2.4 Administration scheme: After overnight fasting, 3 female Wistar rats per group were administered orally (PO) at a dose of 30 mg/kg with an administration volume of 10 mL/kg.
• 1) To 50 uL of plasma sample was added 250 uL of acetonitrile for precipitation, and the mixture was mixed and then centrifuged at 4°C at 4000 rpm for 20 minutes. • 2) The treated supernatant solution was taken and subjected to LC/MS/MS to analyse the concentration of the test compounds. LC/MS/MS analysis instrument: AB Sciex API-4000 Qtrap-Shimadzu Controller-CBM20A.
• Chromatographic column: Waters Xbridge C18 3.5 um 2.1*50 mm • Mobile phase: solution A: 0.1% formic acid in water, and solution B: 0.1% formic acid in acetonitrile • Flow rate: 0.6 mL/min • Elution time: 0-3.5 minutes, with eluents as follows:

Row | Structure (SMILES) | IC50 [1] | IC50 [2] | AUC(0-t) [3] | Cmax [3] | Tmax [3] | half-life [3]
1 | CCc1nonc1C(=O)N[C@H](C(=O)Nc1ncc([C@@H](COC)N2CC(F)(F)CNC2=O)s1)[C@H]1CC[C@H](C)CC1 [Example 556] | 1.8 nM | 4.6 nM | 22100 ng·h/mL | 2390 ng/mL | 2 h | 2.3 h
2 | C[C@@H]1CN(C[C@H](c2cnc(NC(=O)[C@@H](NC(=O)C3(F)CC3)[C@H]3CC[C@H](C)CC3)s2)N2CC(F)(F)CNC2=O)CCO1 [Example 1012, N-((S)-2-((5-((R)-1-(5,5-difluoro-2-oxotetrahydropyrimidin-1(2H)-yl)-2-((R)-2-methylmorpholino)ethyl)thiazol-2-yl)amino)-1-((1r,4S)-4-methylcyclohexyl)-2-oxoethyl)-1-fluorocyclopropane-1-carboxamide] | 6 nM | 3 nM | 14200 ng·h/mL | 2220 ng/mL | 2 h | 2.3 h
3 | C[C@H]1CC[C@H]([C@H](NC(=O)C2(F)CC2)C(=O)Nc2ncc([C@@H](CN3CCC(C(F)F)CC3)N3CC(F)(F)CNC3=O)s2)CC1 [Example 770] | 7 nM | 3.4 nM | 11600 ng·h/mL | 1350 ng/mL | 4 h | 3.5 h
4 | C[C@H]1CC[C@H]([C@H](NC(=O)C2(F)CC2)C(=O)Nc2ncc([C@@H](CN3CCC(F)(F)CC3)N3CC(F)(F)CNC3=O)s2)CC1 [Example 763, N-((S)-2-((5-((R)-1-(5,5-difluoro-2-oxotetrahydropyrimidin-1(2H)-yl)-2-(4,4-difluoropiperidin-1-yl)ethyl)thiazol-2-yl)amino)-1-((1r,4S)-4-methylcyclohexyl)-2-oxoethyl)-1-fluorocyclopropane-1-carboxamide] | 6 nM | 4.5 nM | 15900 ng·h/mL | 1480 ng/mL | 4 h | 3.4 h
5 | C[C@@H]1CN(C[C@H](c2cnc(NC(=O)[C@@H](NC(=O)C3(F)CC3)[C@H]3CC[C@H](C)CC3)s2)N2CC(F)(F)CNC2=O)[C@@H](C)CO1 [Example 731] | 6.6 nM | 6 nM | 14300 ng·h/mL | 1840 ng/mL | 2 h | 2.3 h
6 | [2H]C([2H])([2H])OC1(C)CCN(C[C@H](c2cnc(NC(=O)[C@@H](NC(=O)C3(F)CC3)[C@H]3CC[C@H](C)CC3)s2)N2CC(F)(F)CNC2=O)CC1 [Example 787] | 9 nM | 8.9 nM | 18800 ng·h/mL | 2330 ng/mL | 2 h | 2.4 h
7 | C[C@H]1COCCN1C[C@H](c1cnc(NC(=O)[C@@H](NC(=O)C2(F)CC2)[C@H]2CC[C@H](C)CC2)s1)N1CC(F)(F)CNC1=O [Example 1014, N-((S)-2-((5-((R)-1-(5,5-difluoro-2-oxotetrahydropyrimidin-1(2H)-yl)-2-((S)-3-methylmorpholino)ethyl)thiazol-2-yl)amino)-1-((1r,4S)-4-methylcyclohexyl)-2-oxoethyl)-1-fluorocyclopropane-1-carboxamide] | 7 nM | 8 nM | 12800 ng·h/mL | 1670 ng/mL | 4 h | 2.4 h
8 | C[C@H]1CC(F)(F)CCN1C[C@H](c1cnc(NC(=O)[C@@H](NC(=O)C2(F)CC2)[C@H]2CC[C@H](C)CC2)s1)N1CC(F)(F)CNC1=O [Example 764] | 7 nM | 7 nM | 11700 ng·h/mL | 1090 ng/mL | 4 h | 4.1 h
9 | CC1CCC(C(NC(=O)C2(F)CC2)C(=O)Nc2ncc(C(CN3C(C)COCC3C)N3CC(F)(F)CNC3=O)s2)CC1 (stereo not drawn) [Example 739] | 5 nM | 3 nM | 10300 ng·h/mL | 1940 ng/mL | 2 h | 2.5 h
10 | C[C@@H]1CN(C[C@H](c2cnc(NC(=O)[C@@H](NC(=O)C3(F)CC3)[C@H]3CC[C@H](C)CC3)s2)N2CC(F)(F)CNC2=O)[C@H](C)CO1 [Example 736, N-((S)-2-((5-((R)-1-(5,5-difluoro-2-oxotetrahydropyrimidin-1(2H)-yl)-2-((2R,5R)-2,5-dimethylmorpholino)ethyl)thiazol-2-yl)amino)-1-((1r,4S)-4-methylcyclohexyl)-2-oxoethyl)-1-fluorocyclopropane-1-carboxamide] | 3.6 nM | 1 nM | 10800 ng·h/mL | 1310 ng/mL | 2 h | 2.4 h
11 | [2H]C([2H])([2H])O[C@H]1CCN(C[C@H](c2cnc(NC(=O)[C@@H](NC(=O)C3(F)CC3)[C@H]3CC[C@H](C)CC3)s2)N2CC(F)(F)CNC2=O)C[C@H]1F [Example 782] | 4 nM | 4 nM |  |  |  | 
12 | C[C@@H]1CN(C[C@H](c2cnc(NC(=O)[C@@H](NC(=O)C3(F)CC3)[C@H]3CC[C@H](C)CC3)s2)N2CC(F)(F)CNC2=O)C[C@H](C)O1 [Example 724] | 6 nM | 4 nM |  |  |  | 
13 | COC1CCN(C[C@H](c2cnc(NC(=O)[C@@H](NC(=O)C3(F)CC3)[C@H]3CC[C@H](C)CC3)s2)N2CC(F)(F)CNC2=O)CC1 [Example 777] | 8 nM | 5.3 nM |  |  |  | 
14 | CC1(C)CN(C[C@H](c2cnc(NC(=O)[C@@H](NC(=O)C3(F)CC3)[C@H]3CC[C@H](C)CC3)s2)N2CC(F)(F)CNC2=O)CCO1 [Example 718] | 5 nM | 8 nM |  |  |  | 
15 | C[C@@H]1COCCN1C[C@H](c1cnc(NC(=O)[C@@H](NC(=O)C2(F)CC2)[C@H]2CC[C@H](C)CC2)s1)N1CC(F)(F)CNC1=O [Example 1015] | 4 nM | 6 nM |  |  |  | 
16 | CC1(C)COCCN1C[C@H](c1cnc(NC(=O)[C@@H](NC(=O)C2(F)CC2)[C@H]2CC[C@H](C)CC2)s1)N1CC(F)(F)CNC1=O [Example 723] | 5 nM | 4 nM |  |  |  | 
